Laboratory results reported in US20160355530A1, “HEPATITIS C INHIBITORS AND USES THEREOF” (AbbVie Inc., priority 2010, published 2016).
pEC50, pIC50: −log10 of the molar value. Where two headings read alike, the source gives them in different places.

Tests used:
[1] = system: chimeric replicon with genotype 3a NS5B; assay: microbe, parasite or virus in culture; assay type: cell-based, HCV genotype 3a; details: Hepatitis C virus, read-out: 3a chimera 5% FBS EC50
[2] = target: T1, HCV NS5B polymerase 1b BK strain (Hepatitis C virus genotype 1b, UniProt P26663); assay: HCV NS5B polymerase enzymatic inhibition assay, strain 1b BK; assay type: biochemical; details: enzyme, strain 1b BK; read-out: HCV Polymerase Strain 1b BK IC50
T1 construct: six-histidine tag; made in house; host or cells: E. coli
In short: (§1)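 E. coli-expressed NS5B (residues 1-570, His-tagged) transcribed a 2.1 kb HCV 1b negative-strand 3′-end RNA template (5 nM) with 20 μM CTP, 20 μM ATP and 0.284 μM [3H]UTP for 3 h at 30° C. Spermine-precipitated RNA was filter-captured and counted by scintillation; IC50 from nonlinear regression.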

[3] = system: chimeric replicon with 2a-J6CF-derived NS5B; assay: microbe, parasite or virus in culture; assay type: cell-based, HCV genotype 2a; details: Hepatitis C virus, read-out: 2a chimera 5% FBS EC50
[4] = system: chimeric replicon with genotype 4a NS5B; assay: microbe, parasite or virus in culture; assay type: cell-based, HCV genotype 4a; details: Hepatitis C virus, read-out: 4a chimera 5% FBS EC50
[5] = system: chimeric replicon with genotype 2b NS5B; assay: microbe, parasite or virus in culture; assay type: cell-based, HCV genotype 2b; details: Hepatitis C virus, read-out: 2b chimera 5% FBS EC50
[6] = target: T2, HCV NS5B polymerase 1a-H77-C316Y (Hepatitis C virus genotype 1a, UniProt P27958, C2736Y); assay: biochemical; design: species or system HCV genotype 1a
T2 construct: six-histidine tag; made in house; host or cells: E. coli
In short: as §1

[7] = system: HCV NS5B polymerase 1a-H77-C316Y; assay: biochemical; design: species or system HCV genotype 1a; details: ratio of enzyme IC50s, 1a H77-C316Y / 1a H77
In short: as §1

[8] = target: T3, HCV NS5B polymerase 1a-H77 (Hepatitis C virus genotype 1a, UniProt P27958); assay: biochemical; design: species or system HCV genotype 1a; details: enzyme, strain 1a H77; read-out: HCV Polymerase Strain 1a H77 IC50
T3 construct: six-histidine tag; made in house; host or cells: E. coli
In short: as §1

[9] = system: HCV 1a-H77 subgenomic replicon; assay: microbe, parasite or virus in culture; assay type: cell-based, HCV genotype 1a; details: Hepatitis C virus, stable replicon
[10] = system: HCV 1a-H77-C316Y transient subgenomic replicon in Huh-7 derived cell line; assay: microbe, parasite or virus in culture; assay type: cell-based, HCV genotype 1a; details: for pEC50: Hepatitis C virus, Huh-7, read-out: Transient Replicon 1a H77-C316Y 5% FBS EC50; for Transient Replicon Fold Resistance C316Y/1a: ratio of transient replicon EC50s, C316Y / 1a H77
Experimental: (§2) In addition to the stable replicon inhibition assays, transient replicon assays were performed. Transient replicons are identical to the 1a-H77 and 1a-H77-C316Y constructs, except they lack the Neo gene, making it impossible to establish stable cell lines. A T7 Megascript RNA synthesis kit (Ambion) was used to transcribe the HCV subgenomic RNA. The HCV RNA was then precipitated with lithium chloride according to manufacturer's instructions. The HCV subgenomic replicon RNA was transfected via electroporation into a Huh-7 derived cell line as described (Middleton T, et al. J. Virological Methods 2007; 145(2): 137-145). Transfected cells were diluted and plated in 96 well plates at 5×10^3 cells per well in DMEM. Four hours post-transfection, the wells from one plate were harvested for luciferase measurement. This plate provides a measure of the amount of translatable input RNA, and therefore transfection efficiency. To the wells of the remaining plates, a 3-fold dilution series of test compounds was added in DMSO (0.5% DMSO final concentration), and plates were incubated at 37° C., 5% CO2 in a humidified incubator for 4 days. After this period, the media was removed and the plates were washed with 100 μL phosphate-buffered saline per well. For the luciferase assay, 30 μL of Passive Lysis buffer (Promega) was added to each well, and then the plates were incubated for 15 minutes with rocking to lyse the cells. Luciferin solution (100 μL, Promega) was added to each well, and luciferase activity was measured with a Victor II luminometer (Perkin-Elmer). The EC50 values were calculated using GraphPad Prism 4 software.

[11] = system: HCV 1a-H77 transient subgenomic replicon in Huh-7 derived cell line; assay: microbe, parasite or virus in culture; assay type: cell-based, HCV genotype 1a; details: Hepatitis C virus, Huh-7; transient replicon, 5% FBS; read-out: Transient Replicon 1a H77 5% FBS EC50
Experimental: as §2

[12] = system: HCV 1b-BB7 subgenomic replicon; assay: microbe, parasite or virus in culture; assay type: cell-based, HCV genotype 1b; details: Hepatitis C virus, stable replicon
[13] = 5% FBS, absence of human plasma, read-out: Stable Replicon 1a H77 5% FBS EC50
[14] = strain 1a H77, 5% FBS + 40% human plasma, read-out: 1a H77 5% FBS + 40% Human Plasma EC50
[15] = strain 1a H77, 5% FBS, no human plasma, read-out: 1a H77 5% FBS EC50
[16] = strain 1a H77, 5% FBS, read-out: 1a H77 5% FBS EC50
[17] = strain 1b BB7, 5% FBS + 40% human plasma, read-out: 1b BB7 5% FBS + 40% Human Plasma EC50
[18] = strain 1b BB7, 5% FBS, no human plasma, read-out: 1b BB7 5% FBS EC50
[19] = strain 1b BB7, 5% FBS, read-out: 1b BB7 5% FBS EC50

T1 sequence (P26663 2420-2989): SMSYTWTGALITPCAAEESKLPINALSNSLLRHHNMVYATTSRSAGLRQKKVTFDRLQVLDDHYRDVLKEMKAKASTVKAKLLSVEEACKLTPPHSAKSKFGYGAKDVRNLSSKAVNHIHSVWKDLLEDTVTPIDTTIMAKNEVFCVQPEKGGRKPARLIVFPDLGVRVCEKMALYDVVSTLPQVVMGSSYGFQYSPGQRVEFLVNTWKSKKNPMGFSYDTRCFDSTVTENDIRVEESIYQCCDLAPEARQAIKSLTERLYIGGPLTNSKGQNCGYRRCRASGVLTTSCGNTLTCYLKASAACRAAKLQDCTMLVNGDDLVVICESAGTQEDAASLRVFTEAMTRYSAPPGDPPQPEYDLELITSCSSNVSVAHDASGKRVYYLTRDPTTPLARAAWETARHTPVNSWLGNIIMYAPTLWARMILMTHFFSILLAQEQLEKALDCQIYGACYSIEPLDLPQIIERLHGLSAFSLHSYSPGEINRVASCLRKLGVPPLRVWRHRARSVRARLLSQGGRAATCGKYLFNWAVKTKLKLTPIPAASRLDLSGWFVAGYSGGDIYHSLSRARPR
T2 sequence (P27958 2421-2990 C2736Y): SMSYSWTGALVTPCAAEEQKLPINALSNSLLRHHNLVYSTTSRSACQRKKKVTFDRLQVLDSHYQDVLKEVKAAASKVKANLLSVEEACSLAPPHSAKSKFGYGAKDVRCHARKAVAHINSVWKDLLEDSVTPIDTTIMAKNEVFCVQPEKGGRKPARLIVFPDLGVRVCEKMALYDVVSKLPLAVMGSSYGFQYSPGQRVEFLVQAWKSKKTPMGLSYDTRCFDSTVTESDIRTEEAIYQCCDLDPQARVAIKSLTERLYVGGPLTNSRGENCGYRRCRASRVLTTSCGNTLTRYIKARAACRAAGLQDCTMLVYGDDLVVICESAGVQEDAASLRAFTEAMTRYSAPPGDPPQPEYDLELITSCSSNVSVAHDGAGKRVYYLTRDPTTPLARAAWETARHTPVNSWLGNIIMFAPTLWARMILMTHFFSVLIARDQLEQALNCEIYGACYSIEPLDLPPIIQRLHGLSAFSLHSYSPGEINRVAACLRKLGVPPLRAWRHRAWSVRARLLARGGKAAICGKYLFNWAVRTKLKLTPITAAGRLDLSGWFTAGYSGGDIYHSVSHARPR
T3 sequence (P27958 2421-2990): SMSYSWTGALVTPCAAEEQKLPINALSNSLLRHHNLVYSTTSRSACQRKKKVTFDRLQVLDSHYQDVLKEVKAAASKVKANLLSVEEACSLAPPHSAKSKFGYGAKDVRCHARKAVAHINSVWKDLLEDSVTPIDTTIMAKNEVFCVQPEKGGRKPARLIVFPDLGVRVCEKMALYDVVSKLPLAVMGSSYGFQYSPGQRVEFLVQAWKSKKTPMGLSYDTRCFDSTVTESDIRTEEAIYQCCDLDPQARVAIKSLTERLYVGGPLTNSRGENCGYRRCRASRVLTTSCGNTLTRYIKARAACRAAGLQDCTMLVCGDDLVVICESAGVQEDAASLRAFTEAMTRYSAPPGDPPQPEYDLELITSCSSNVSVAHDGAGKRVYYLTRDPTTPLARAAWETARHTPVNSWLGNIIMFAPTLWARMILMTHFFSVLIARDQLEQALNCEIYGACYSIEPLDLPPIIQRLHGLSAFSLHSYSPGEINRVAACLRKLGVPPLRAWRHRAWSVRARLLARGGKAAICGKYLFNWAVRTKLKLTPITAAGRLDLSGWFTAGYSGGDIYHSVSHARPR

Row | SMILES | pEC50 [1] | pIC50 [2] | pEC50 [3] | pEC50 [4] | pEC50 [5] | pIC50 [6] | C316Y/1a Fold Resistance [7] [fold] | pIC50 [8] | pEC50 [9, 13] | pEC50 [9, 14] | pEC50 [9, 15] | pEC50 [9, 16] | pEC50 [10] | Transient Replicon Fold Resistance C316Y/1a [10] [fold] | pEC50 [11] | pEC50 [12, 17] | pEC50 [12, 18] | pEC50 [12, 19]
1 | CS(=O)(=O)N(Cc1cnc(-c2ccc3nc[nH]c3c2)s1)c1ccc2c(-c3ncc[nH]3)c(-c3ccccc3)oc2c1 [Example 3, N-{[2-(1H-benzimidazol-6-yl)-1,3-thiazol-5-yl]methyl}-N-[3-(1H-imidazol-2-yl)-2-phenyl-1-benzofuran-6-yl]methanesulfonamide] | 8.55 | 8.00 | 7.53 | 6.87 | 7.09 | 7.96 | 4 | 8.52 | 7.32 | 5.10 | 7.32 | 7.32 | 6.96 | 5 | 7.67 | 6.12 | 8.30 | 8.30
2 | CC(C)CCN(c1cc2oc(-c3ccc(F)cc3)c(-c3ncc[nH]3)c2cc1C1CC1)S(C)(=O)=O [Example 4, N-[5-cyclopropyl-2-(4-fluorophenyl)-3-(1H-imidazol-2-yl)-1-benzofuran-6-yl]-N-(3-methylbutyl)methanesulfonamide] | 7.96 | 7.96 | 6.81 | 6.77 | 6.57 | 7.24 | 11 | 8.28 | 7.54 | 6.29 | 7.54 | 7.54 | 7.16 | 9 | 8.10 | 6.53 | 7.60 | 7.60
3 | CS(=O)(=O)N(CCCCO)c1cc2oc(-c3ccc(F)cc3)c(-c3ncc[nH]3)c2cc1C1CC1 [Example 5, N-[5-cyclopropyl-2-(4-fluorophenyl)-3-(1H-imidazol-2-yl)-1-benzofuran-6-yl]-N-(4-hydroxybutyl)methanesulfonamide] | 8.33 | 7.77 | 7.54 | 7.49 | 7.55 | 7.28 | 14 | 8.41 | 8.49 | 7.30 | 8.50 | 8.49 | 7.06 | 29 | 8.52 | 7.66 | 8.43 | 8.43
4 | CS(=O)(=O)CCCCN(c1cc2oc(-c3ccc(F)cc3)c(-c3ncc[nH]3)c2cc1C1CC1)S(C)(=O)=O [Example 6, N-[5-cyclopropyl-2-(4-fluorophenyl)-3-(1H-imidazol-2-yl)-1-benzofuran-6-yl]-N-[4-(methylsulfonyl)butyl]methanesulfonamide] | 8.48 | 7.80 | 7.59 | 7.79 | 7.73 | 7.16 | 13 | 8.28 | 8.08 | 7.21 | 8.08 | 8.08 | 6.98 | 33 | 8.49 | 7.44 | 8.41 | 8.41
5 | CS(=O)(=O)N(CCCc1cc(O)no1)c1cc2oc(-c3ccc(F)cc3)c(-c3ncc[nH]3)c2cc1C1CC1 [Example 7, N-[5-cyclopropyl-2-(4-fluorophenyl)-3-(1H-imidazol-2-yl)-1-benzofuran-6-yl]-N-[3-(3-hydroxy-1,2-oxazol-5-yl)propyl]methanesulfonamide] | 7.95 | 7.96 | 6.66 | 6.79 | 6.75 | 7.92 | 4 | 8.52 | 7.82 | 6.95 | 7.82 | 7.82 | 6.49 | 33 | 8.00 | 6.97 | 8.24 | 8.24
6 | CS(=O)(=O)N(CCCCO)c1cc2oc(-c3ccc(F)cc3)c(C3=NOCCN3)c2cc1C1CC1 [Example 8, N-[5-cyclopropyl-3-(5,6-dihydro-4H-1,2,4-oxadiazin-3-yl)-2-(4-fluorophenyl)-1-benzofuran-6-yl]-N-(4-hydroxybutyl)methanesulfonamide] | 7.70 | 7.57 | 6.93 | 7.15 | 7.00 | 7.51 | 6 | 8.31 | 8.20 | 7.44 | 8.20 | 8.20 | 7.50 | 10 | 8.51 | 7.19 | 8.00 | 8.00
7 | CS(=O)(=O)CCN(c1cc2oc(-c3ccc(F)cc3)c(C3=NOCCN3)c2cc1C1CC1)S(C)(=O)=O [Example 9, N-[5-cyclopropyl-3-(5,6-dihydro-4H-1,2,4-oxadiazin-3-yl)-2-(4-fluorophenyl)-1-benzofuran-6-yl]-N-[2-(methylsulfonyl)ethyl]methanesulfonamide] | 7.65 | 7.47 | 6.53 | 6.90 | 6.53 | 7.52 | 8 | 8.41 | 8.08 | 7.17 | 8.08 | 8.08 | 7.24 | 7 | 8.11 | 6.86 | 7.82 | 7.82
8 | CC(C)CCN(c1cc2oc(-c3ccc(F)cc3)c(C3=NOCCN3)c2cc1C1CC1)S(C)(=O)=O [Example 10, N-[5-cyclopropyl-3-(5,6-dihydro-4H-1,2,4-oxadiazin-3-yl)-2-(4-fluorophenyl)-1-benzofuran-6-yl]-N-(3-methylbutyl)methanesulfonamide] | 7.80 | 6.98 | 6.74 | 6.72 | 6.52 | 7.19 | – | 8.15 | 7.98 | 6.87 | 7.98 | 7.98 | 7.47 | 6 | 8.22 | 6.77 | 7.79 | 7.79
